We go through seven compounds from BindingDB's records for doi:10.7270/Q2W957MN (The Scripps Research Institute Molecular Screening Center, 2010).

The structures appear in SMILES notation. Bounds are passed on as bounds.

This assay has as its target T1, Trans-activator protein BZLF1 (Epstein-Barr virus (strain B95-8), UniProt P03206).
T1 sequence (P03206 whole entry): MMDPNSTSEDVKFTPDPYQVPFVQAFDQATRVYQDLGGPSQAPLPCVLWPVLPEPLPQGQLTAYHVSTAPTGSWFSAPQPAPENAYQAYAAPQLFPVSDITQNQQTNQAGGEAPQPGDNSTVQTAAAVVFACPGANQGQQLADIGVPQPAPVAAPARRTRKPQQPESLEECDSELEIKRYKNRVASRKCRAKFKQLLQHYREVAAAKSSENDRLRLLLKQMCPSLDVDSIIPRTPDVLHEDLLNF
The experiment in a line: inhibition of BZLF1 ZTA DNA binding – biochemical, fluorescence polarization, Epstein-Barr virus, 1536-well, counter-screen for EBNA-1 inhibitor project, dose response (AID 2377). On the technique in general: Polarisation of emitted light reports the rotation of a fluorescent probe.
The term IC50 denotes the concentration that gives 50% inhibition. High values mean weaker potency in that assay, low ones greater potency in that assay. Compound `COc1cc(-c2nc3n(n2)C(c2cccc(OC)c2OC)C2C(=O)CCCC2=N3)cc(OC)c1OC` (configuration not stated) yielded an IC50 greater than 111 µM.

Compound `COc1ccc(-n2cc(O)c(-c3nc4ccccc4s3)c2N)cc1` returned an IC50 greater than 111 µM. As for `COc1cccc(-n2cc(O)c(-c3nc4ccccc4c(=O)[nH]3)c2N)c1` [MLS000075886], the figure is greater than 111 µM; as for `C=c1cc2[nH]c(=O)c(=Cc3cn(C)c4ccccc34)c(=N)n2o1` [(6Z)-7-imino-2-methyl-6-[(1-methylindol-3-yl)methylidene]-[1,2]oxazolo[2,3-a]pyrimidin-5-one], greater than 111 µM; as for `O=[N+]([O-])c1cccc(CN=Nc2nc(NCc3ccccc3)nc(N3CCOCC3)n2)c1` [SMR000174986], greater than 111 µM. With `CN1C(=O)/C(=N\NC(=O)c2cc(-c3cccs3)nc3ccccc23)c2ccccc21` [SMR000242891], the IC50 is greater than 111 µM. The value for `O=C(Nc1nc2cc3c(cc2s1)OCCO3)c1ccc(-n2c(O)ccc2O)cc1` was 15.1 µM.
